Results reported in publication PMC9640980, “Pharmacological evaluation of enantiomerically separated positive allosteric modulators of cannabinoid 1 receptor, GAT591 and GAT593” (Frontiers in Pharmacology, 2022).

Key:
hCB1R [1] = target: T1, hCB1R (Homo sapiens, UniProt P21554); experiment: [35S]GTPγS G protein coupling assay, membranes of CHO-K1 cells overexpressing hCB1R; assay type: biochemical; details: absence of orthosteric agonist, Figure 4B; for EC50: value (95% CI), read-out: EC50 (nM) 95% C.I., [35S]GTPγS binding, compound alone
T1 construct: expressed in transfected cells; host or cells: CHO-K1 cell membranes
Experimental: This assay was conducted as described in previous reports ([Garai et al., 2020]). To summarize, the assay was completed in the presence of [35S]GTPγS (0.1 nM), GDP (30 µM), GTPγS (30 µM) using membranes derived from CHO-K1 cells (1 mg/ml) overexpressing hCB1R. Assay buffer consisted of 50 mM Tris, 10 mM MgCl2, 100 mM NaCl, 0.2 mM EDTA and 1 mM dithiothreitol (DTT) at pH 7.4. Membranes were incubated at 30°C for 90 min in a total volume of […]. Reactions were ended by the addition of ice-cold wash buffer (50 mM Tris and 1 mg/ml BSA, pH 7.4) followed by rapid filtration under vacuum through pre-soaked Whatman GF/B glass-fibre filters in a 24-well sampling manifold (Brandel Cell Harvester; Brandel Inc., Gaithersburg, MD, United States). Reaction wells were washed six times with a 1.2 ml aliquots of Tris-binding buffer. Filters were subsequently oven-dried for 60 min and placed in 3 ml of scintillation fluid (Ultima Gold XR, PerkinElmer). Bound radioactivity was determined by liquid scintillation counting. Basal [35S]GTPγS binding was determined in the presence of […] GDP without any compounds present. Non-specific binding was determined in the presence of […] GTPγS.
(§1) Data related to EC50 and E max in Figures 3, 4 were obtained with nonlinear regression models (3-parameter model, GraphPad Prism 9.0, San Diego, CA). […] Significance was determined by one- or two-way ANOVA followed by Tukey’s or Bonferroni’s post-hoc test as indicated. p < 0.05 was considered significant and p values were only employed where ANOVA was used. Data related to Figure 5 was analyzed in GraphPad Prism 9.0 was used to analyze in vivo data and p < 0.05 was considered to be statistically significant. Data are expressed as mean ± SEM. Group sizes for all experiments are described in figure legends.

hCB1R [2] = target: T1, hCB1R; experiment: [3H]CP55,940 radioligand binding to hCB1R CHO-K1 cell membranes; details: for Emax ± S.E.M., [3H]CP55,940 bound: 1 nM [3H]CP55,940, Figure 4A
Experimental: The assay began with the addition of transfected hCB1R CHO-K1 cell membranes (25 µg protein per well). The assays were left to equilibrate at room temperature for 2 h before vacuum filtration using a Millipore Sigma 12-well sampling manifold and filter paper that had been soaked in wash buffer. Each reaction well was washed 3 times with a 2 ml aliquot of Tris-binding buffer. The filters were removed then submerged in 5 ml of scintillation fluid (Ultima Gold F, PerkinElmer, Buckinghamshire, United Kingdom). Radioactivity was quantified by liquid scintillation spectrometry.
as §1

male C57BL/6 mice [3] = experiment: Triad assessment in mice: body temperature (rectal thermometer); assay type: in vivo, mouse; details: for hypothermia, compound alone: 0.1, 1, 3, or 10 mg/kg i.p. compared to vehicle, male C57BL/6 mice, Figure 5B; for hypothermic effect, co-administered with THC: 3 and 10 mg/kg i.p. + sub-threshold 1 mg/kg THC, Figure 5E
Experimental: (§2) Male C57BL/6 mice (Charles River, Senneville, QC) between 4 and 7 months of age were used for these studies. Animals were group housed at the Laboratory Animal Services Unit (LASU) at the University of Saskatchewan (3-5 animals/cage) with a standard 12:12 light-dark cycle, ad libitum access to food and water, and environmental enrichment. Compounds administered intraperitoneally (i.p.) were prepared in vehicle [ethanol and cremophor in saline (1:1:8)]. Catalepsy was assessed in the bar holding assay 5 min after drug administration. Mice were placed so that their forepaws clasped a 0.7 cm ring clamp positioned 4.5 cm above the surface of the testing space ([Zagzoog et al., 2021]). The length of time the ring was held was recorded in seconds. The trial ended if the mouse turned its head or body or made 3 consecutive escape attempts to a maximum of 60 s. Body temperature was measured by rectal thermometer 15 min after drug administration. Anti-nociceptive effects were measured in the warm water (52 ± 2°C) tail-flick test 20 min after drug administration. Response in this case was defined by the removal of the tail from the warm water, with a maximal response time of 20 s. Catalepsy and tail flick data are presented as percent maximum possible effect (MPE). Compounds were administered at the doses indicated. Experimenters were blinded to treatment for all behavioral assessments and analyses. Animals were purchased, rather than bred, to reduce animal numbers. In all cases, experiments were performed with the approval of the University Animal Care Committee (UACC) at the University of Saskatchewan and are in keeping with the guidelines of the Canadian Council on Animal Care (CCAC) and the ARRIVE guidelines ([Kilkenny et al., 2010]).

human CB1R (hCB1R) [4] = target: T2, human CB1R (hCB1R) (Homo sapiens, UniProt P21554); experiment: HitHunter cAMP inhibition assay in hCB1R CHO-K1 cells (10 µM forskolin); assay type: cell-based; details: value (95% CI)
T2 construct: host or cells: CHO-K1 (PathHunter βarrestin2 line)
Experimental: (§3) HitHunter (cAMP) and PathHunter (βarrestin2) Chinese hamster ovary (CHO)-K1 cells stably-expressing human CB1R (hCB1R) from DiscoveRx (Eurofins, Freemont, CA) were maintained at 37°C, 5% CO2 in DMEM/F-12 containing 10% fetal bovine serum (FBS) and 5 U × 10^4 U penicillin/streptomycin (ThermoFisher, Mississauga, ON). In addition, 800 μg/ml geneticin was used for CHO-K1 hCB1R HitHunter cAMP cells and 800 μg/ml geneticin and 300 μg/ml hygromycin B was used for CHO-K1 hCB1R PathHunter βarrestin2 cells.
cAMP inhibition was performed in the presence of 10 µM forskolin (FSK) using the DiscoveRx HitHunter assay in hCB1R CHO-K1 cells. Cells (16,000 cells/well in 96 well plates) were incubated overnight in Opti-MEM (Invitrogen) containing 1% FBS at 37°C and 5% CO2. Opti-MEM media was removed and replaced with cell assay buffer (DiscoveRx) and then cells were simultaneously treated with 10 µM FSK and experimental compounds (0.10 nM–10 µM) for 90 min cAMP antibody solution and working detection solutions were added according to the manufacturer’s protocol (DiscoveRx), and cells were incubated for 60 min at room temperature. cAMP solution A was added according to the manufacturer’s protocol (DiscoveRx) and cells were incubated for an additional 60 min at room temperature before chemiluminescence was measured on a Cytation5 plate reader (top read, gain 200, integration time 10 s).
as §1

human CB1R (hCB1R) [5] = target: T2, human CB1R (hCB1R); experiment: PathHunter βarrestin2 recruitment assay in hCB1R CHO-K1 cells; assay type: cell-based; details: for βarrestin2 recruitment to hCB1R, in words: as agonist (and PAM where stated), Figures 3B,D; for EC50: compound alone, hCB1R CHO-K1, 90 min, value (95% CI), Figure 3B, read-out: EC50 (nM) 95% C.I., βarrestin2 recruitment as agonist; for activity in the βarrestin2 recruitment assay as PAM, in words: as PAMs, 100 nM CP55,940
Experimental: as §3
βarrestin2 recruitment was determined using the hCB1R CHO-K1 cell PathHunter assay (DiscoveRx). Cells (16,000 cells/well in 96 well plates) were incubated overnight in Opti-MEM (Invitrogen) containing 1% FBS at 37°C and 5% CO2. Cells were then simultaneously treated with experimental compounds (0.10 nM–10 µM) for 90 min. Detection solution was added to cells according to the manufacturer’s protocol (DiscoveRx), and cells were incubated for 60 min at room temperature. Chemiluminescence was measured on a Cytation5 plate reader (top read, gain 200, integration time 10 s).
as §1

male C57BL/6 mice [6] = experiment: Triad assessment in mice: nociception (warm water tail-flick test); assay type: in vivo, mouse; details: for anti-nociceptive effects (tail flick), compound alone: 0.1, 1, 3, or 10 mg/kg i.p. compared to vehicle, male C57BL/6 mice, Figure 5C; for anti-nociceptive effect (tail flick), co-administered with THC: 3 and 10 mg/kg i.p. + sub-threshold 1 mg/kg THC, Figure 5F
Experimental: as §2

male C57BL/6 mice [7] = experiment: Triad assessment in mice: catalepsy (bar holding assay); assay type: in vivo, mouse; details: for catalepsy, compound alone: 0.1, 1, 3, or 10 mg/kg i.p. compared to vehicle, male C57BL/6 mice, Figure 5A; for cataleptic effect, co-administered with THC: 3 and 10 mg/kg i.p. + sub-threshold 1 mg/kg THC, Figure 5D
Experimental: as §2

male C57BL/6 mice [8] = system: male C57BL/6 mice; set-up: method as in Garai et al., 2020; details: significant relative to vehicle at 3 and 10 mg/kg; ref Garai et al., 2020; cited from earlier work
male C57BL/6 mice [9] = system: male C57BL/6 mice; set-up: method as in Garai et al., 2020; details: 0.1, 1, 3, or 10 mg/kg (i.p.) compared to vehicle; ref Garai et al., 2020; cited from earlier work
male C57BL/6 mice [10] = system: male C57BL/6 mice; set-up: method as in Garai et al., 2020; details: 0.1, 1, 3, or 10 mg/kg (i.p.) compared to vehicle; ref Garai et al., 2020; cited from earlier work; remark: listed apart in the source
[11] = set-up: method as in Garai et al., 2020; details: racemic mixtures; ref Garai et al., 2020; cited from earlier work
[12] = 100 nM CP55,940 + compound, Figure 3C, read-out: EC50 (nM) 95% C.I., cAMP inhibition as PAM
[13] = compound alone, hCB1R CHO-K1, 90 min, Figure 3A, read-out: EC50 (nM) 95% C.I., cAMP inhibition as agonist

T2 sequence (P21554 whole entry): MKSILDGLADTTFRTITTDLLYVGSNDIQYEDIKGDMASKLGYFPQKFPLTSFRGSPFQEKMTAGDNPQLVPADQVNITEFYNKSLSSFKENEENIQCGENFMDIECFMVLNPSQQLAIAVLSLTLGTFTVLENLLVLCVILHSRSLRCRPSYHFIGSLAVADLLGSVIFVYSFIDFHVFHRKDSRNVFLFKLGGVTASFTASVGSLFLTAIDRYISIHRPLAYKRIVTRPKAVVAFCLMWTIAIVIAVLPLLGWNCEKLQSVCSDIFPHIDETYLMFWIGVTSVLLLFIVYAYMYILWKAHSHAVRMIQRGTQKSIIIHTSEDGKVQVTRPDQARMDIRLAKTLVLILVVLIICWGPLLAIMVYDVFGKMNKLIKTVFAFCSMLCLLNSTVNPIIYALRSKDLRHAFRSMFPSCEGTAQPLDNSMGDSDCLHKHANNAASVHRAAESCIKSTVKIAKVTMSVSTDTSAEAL
T1 sequence (P21554 whole entry): as above

Row | SMILES | Emax ± S.E.M., [35S]GTPγS binding, compound alone (hCB1R [1]) | EC50 (hCB1R [1]) [nM] | EC50 (hCB1R [2]) [nM] | Emax ± S.E.M., [3H]CP55,940 bound (hCB1R [2]) [% radioligand bound] | hypothermia, compound alone (male C57BL/6 mice [3]) | hypothermic effect, co-administered with THC (male C57BL/6 mice [3]) | EC50 (human CB1R (hCB1R) [4]; [12]) [nM] | EC50 (human CB1R (hCB1R) [4]; [13]) [nM] | βarrestin2 recruitment to hCB1R, in words (human CB1R (hCB1R) [5]) | EC50 (human CB1R (hCB1R) [5]) [nM] | anti-nociceptive effects (tail flick), compound alone (male C57BL/6 mice [6]) | anti-nociceptive effect (tail flick), co-administered with THC (male C57BL/6 mice [6]) | catalepsy, compound alone (male C57BL/6 mice [7]) | cataleptic effect, co-administered with THC (male C57BL/6 mice [7]) | activity in the βarrestin2 recruitment assay as PAM, in words (human CB1R (hCB1R) [5]) | anti-nociceptive effect in the tail flick assay, racemate alone (male C57BL/6 mice [8]) | hypothermia, racemate alone (male C57BL/6 mice [9]) | catalepsy, racemate alone (male C57BL/6 mice [10]) | metabolic stability and blood brain barrier penetrance, in words [11]
1 | O=[N+]([O-])C[C@@H](c1ccccc1F)c1c(-c2cccc(F)c2)[nH]c2c(F)cccc12 [GAT1667] | 34 ± 2.3 % stimulation above baseline | 8 | 28 | 230 ± 5.4 | did not produce | significant | 1.8 | 1.7 | recruited βarrestin2 as low-potency agonists and PAMs | > 10000 | did not produce | significant | did not produce | significant | – | – | – | – | –
2 | O=[N+]([O-])CC(c1ccccc1F)c1c(-c2cccc(F)c2)[nH]c2cc(F)ccc12 (centres unmarked) [GAT1664] | 38 ± 3.1 % stimulation above baseline | 110 | 110 | 140 ± 7.0 | did not produce | – | 29 | 2.8 | did not recruit βarrestin2 | > 10000 | did not produce | – | did not produce | – | no activity | – | – | – | –
3 | O=[N+]([O-])C[C@@H](c1ccccc1F)c1c(-c2cccc(F)c2)[nH]c2cc(F)ccc12 [GAT1665] | 41 ± 4.2 % stimulation above baseline | 21 | 140 | 190 ± 8.5 | did not produce | significant | 8.6 | 1.1 | recruited βarrestin2 as low-potency agonists and PAMs | > 10000 | did not produce | significant | did not produce | significant | – | – | – | – | –
4 | O=[N+]([O-])CC(c1ccccc1F)c1c(-c2cccc(F)c2)[nH]c2cc(F)ccc12 (centres unmarked) [GAT591] | – | – | – | – | – | – | – | – | – | – | – | – | – | – | – | dose-dependent anti-nociceptive effect | did not produce | did not produce | –
5 | O=[N+]([O-])CC(c1ccccc1F)c1c(-c2cccc(F)c2)[nH]c2c(F)cccc12 (centres unmarked) [GAT1666] | 29 ± 2.6 % stimulation above baseline | 120 | 140 | 140 ± 6.1 | did not produce | – | 270 | 1.3 | weak ability | > 10000 | did not produce | – | did not produce | – | no activity | – | – | – | –
6 | O=[N+]([O-])CC(c1ccccc1F)c1c(-c2cccc(F)c2)[nH]c2c(F)cccc12 (centres unmarked) [GAT593] | – | – | – | – | – | – | – | – | – | – | – | – | – | – | – | dose-dependent anti-nociceptive effect | did not produce | did not produce | superior to GAT591
